Test results reported in patent US9637490B2, “Antifungal 5,6-dihydro-4-[(difluoroethyl)phenyl]-4H-pyrrolo[1,2-α][1,4]benzodiazepine and 4-(difluoroethyl)phenyl-6H-pyrrolo[1,2-α][1,4]benzodiazepine derivatives” (Janssen Pharmaceutica NV, priority 2010, dated 2017).

Experiments:
[1] = system: Microsporum canis (strain B68128); assay: Test D.4.1: activity against M. canis in guinea-pigs after oral treatment for 7 consecutive days; assay type: in vivo; design: key to semi-quantitative lesion score (mean): lesion score 0–3.5 by severity and size of lesion
How it was run: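 Female Duncan-Hartley guinea pigs, scarified depilated dorsum inoculated with 10^6 cfu M. canis spores in honey-water. Compounds in methocel 0.5%/Tween 80 vehicle given by oral gavage once daily for 7 days, starting ~2 h pre-infection; itraconazole reference. Lesions scored semi-quantitatively (0–3.5) on days 3–20 post-infection; mean scores.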

[2] = system: Scedosporium prolificans IHEM21157; assay: Antifungal activity in vitro (resazurin susceptibility screen), Inf. I; assay type: cell-based; settings: Lomentospora prolificans, 37 °C, 48 hours, resa time 17 hours
How it was run: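 Serial dilutions were tested up to 64 μM in RPMI-1640 with L-glutamine and 2% glucose, MOPS-buffered at pH 7.0, against an inoculum of 10^3 cfu per well. Incubation lasted from 24 h at 37° C. for yeasts to a week or more at 27° C. for dermatophytes. Growth was then read fluorimetrically after resazurin (ex 550/em 590 nm).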

IC50 [2]: 148 nM
Structure (SMILES): CC(F)(F)c1ccc(C2=NCc3c(Cl)cccc3-n3cccc32)cc1 [Compound 4, 7-chloro-4-[4-(1,1-difluoroethyl)phenyl]-6H-pyrrolo[1,2-a][1,4]benzodiazepine]
semi-quantitative lesion score (mean) ([1]; oral 5 mg/kg once daily for 7 days, 3 DPI): 0
semi-quantitative lesion score (mean) ([1]; oral 5 mg/kg once daily for 7 days, 5 DPI): 0.67
semi-quantitative lesion score (mean) ([1]; oral 5 mg/kg once daily for 7 days, 7 DPI): 1.50
semi-quantitative lesion score (mean) ([1]; oral 5 mg/kg once daily for 7 days, 10 DPI): 2.00
semi-quantitative lesion score (mean) ([1]; oral 5 mg/kg once daily for 7 days, 12 DPI): 2.17
semi-quantitative lesion score (mean) ([1]; oral 5 mg/kg once daily for 7 days, 14 DPI): 1.83
semi-quantitative lesion score (mean) ([1]; oral 5 mg/kg once daily for 7 days, 17 DPI): 1.33
semi-quantitative lesion score (mean) ([1]; oral 5 mg/kg once daily for 7 days, 20 DPI): 1.17
activity compared with the terbinafine group (G2, 10 mg/kg) ([1]; oral 10 mg/kg once daily for 7 days): comparable to G2
semi-quantitative lesion score (mean) ([1]; oral 10 mg/kg once daily for 7 days, 3 DPI): 0
semi-quantitative lesion score (mean) ([1]; oral 10 mg/kg once daily for 7 days, 5 DPI): 0
semi-quantitative lesion score (mean) ([1]; oral 10 mg/kg once daily for 7 days, 7 DPI): 0.33
semi-quantitative lesion score (mean) ([1]; oral 10 mg/kg once daily for 7 days, 10 DPI): 1.00
semi-quantitative lesion score (mean) ([1]; oral 10 mg/kg once daily for 7 days, 12 DPI): 1.50
semi-quantitative lesion score (mean) ([1]; oral 10 mg/kg once daily for 7 days, 14 DPI): 1.50
semi-quantitative lesion score (mean) ([1]; oral 10 mg/kg once daily for 7 days, 17 DPI): 0.50
semi-quantitative lesion score (mean) ([1]; oral 10 mg/kg once daily for 7 days, 20 DPI): 0.33
activity compared with the terbinafine group (G2, 10 mg/kg) ([1]; oral 40 mg/kg once daily for 7 days): remarkably more active than the terbinafine group
semi-quantitative lesion score (mean) ([1]; oral 40 mg/kg once daily for 7 days, 3 DPI): 0
semi-quantitative lesion score (mean) ([1]; oral 40 mg/kg once daily for 7 days, 5 DPI): 0.17
semi-quantitative lesion score (mean) ([1]; oral 40 mg/kg once daily for 7 days, 7 DPI): 0.17
semi-quantitative lesion score (mean) ([1]; oral 40 mg/kg once daily for 7 days, 10 DPI): 0.17
semi-quantitative lesion score (mean) ([1]; oral 40 mg/kg once daily for 7 days, 12 DPI): 0.17
semi-quantitative lesion score (mean) ([1]; oral 40 mg/kg once daily for 7 days, 14 DPI): 0
semi-quantitative lesion score (mean) ([1]; oral 40 mg/kg once daily for 7 days, 17 DPI): 0.17
semi-quantitative lesion score (mean) ([1]; oral 40 mg/kg once daily for 7 days, 20 DPI): 0.17
